According to ChEMBL document CHEMBL5625206, “Design, synthesis, and evaluation of novel pleuromutilin aryl acrylate derivatives as promising broad-spectrum antibiotics especially for combatting multi-drug resistant gram-negative bacteria” (Eur J Med Chem, 2023):
Values after ≈ are worked out from the molar mass of the structure shown. Active and inactive are the calls of the source. No cut-off for these calls is given here.

Tests used:
Escherichia coli [1] = assay: Antibacterial activity against Escherichia coli ATCC 25922 assessed as bacterial growth inhibition incubated for 24 hrs by CLSI based broth microdilution method; assay type: functional
Klebsiella pneumoniae = assay: Antibacterial activity against multidrug-resistant Klebsiella pneumoniae 893 clinical isolate assessed as bacterial growth inhibition incubated for 24 hrs by CLSI based broth microdilution method; assay type: functional
Acinetobacter baumannii = assay: Antibacterial activity against carbapenem-resistant Acinetobacter baumannii 882 clinical isolate assessed as bacterial growth inhibition incubated for 24 hrs by CLSI based broth microdilution method; assay type: functional
[2] = system: Mesomycoplasma hyopneumoniae; assay: Anti-mycoplasma activity against Mycoplasma hyopneumoniae LH-NCTC10130 assessed as bacterial growth inhibition incubated for 7 days; assay type: functional; conditions: Mesomycoplasma hyopneumoniae, LH-NCTC10130, 168 h; time 7 day; read-out: MIC
Mycoplasmopsis synoviae = assay: Anti-mycoplasma activity against Mycoplasmopsis synoviae MS-MVU1852-NCTC10124 assessed as bacterial growth inhibition incubated for 7 days; assay type: functional; conditions: MS-MVU1852-NCTC10124, 168 h, time 7 day
[3] = Cytotoxicity against HEK293 cells incubated for 24 hrs by CCK8 assay; assay type: toxicity, cell-based; conditions: human
Escherichia coli [4] = assay: Inhibition of biofilm formation of Escherichia coli ATCC 25922 at MIC incubated for 24 hrs by crystal violet staining based analysis relative to control; assay type: functional
Staphylococcus aureus [5] = assay: Induction of cell damage in methicillin-resistant Staphylococcus aureus ATCC 33591 assessed as fold increase in extracellular ATP concentration at MIC incubated for 30 mins by fluorescence based analysis relative to control; assay type: functional; conditions: 0.5 h
Staphylococcus aureus [6] = assay: Induction of cell damage in methicillin-resistant Staphylococcus aureus ATCC 33591 assessed as fold increase in extracellular ATP concentration at 2 times MIC incubated for 30 mins by fluorescence based analysis relative to control; assay type: functional; conditions: 0.5 h
Escherichia coli [7] = assay: Induction of extracellular electrical conductivity in Escherichia coli ATCC 25922 at MIC incubated for 8 hrs relative to control; assay type: functional
Staphylococcus aureus [8] = assay: Disruption of cell membrane integrity in methicillin-resistant Staphylococcus aureus ATCC 33591 assessed as wrinkled cell surface at MIC incubated for 4 hrs by FESEM analysis; assay type: functional, organism-based
Escherichia coli [9] = assay: Disruption of cell membrane integrity in Escherichia coli ATCC 25922 assessed as wrinkled cell surface at MIC incubated for 4 hrs by FESEM analysis; assay type: functional, organism-based
Escherichia coli [10] = assay: Disruption of cell membrane integrity in Escherichia coli ATCC 25922 assessed as rough cell surface at MIC incubated for 4 hrs by FESEM analysis; assay type: functional, organism-based
[11] = Toxicity in neutropenic Kunming mouse model infected with methicillin-resistant Staphylococcus aureus ATCC 33591 assessed as survival rate at 5 mg/kg, ip measured after 7 days relative to control; assay type: organism-based; conditions: in vivo, 168 h, time 7 day
Staphylococcus aureus [12] = assay: Antibacterial activity against methicillin-resistant Staphylococcus aureus ATCC 33591 infected in neutropenic Kunming mouse model assessed as bacterial load reduction in lung at 10 to 20 mg/kg, ip measured after 2 days; assay type: functional, organism-based; conditions: dose 10-20 mg/kg, time 2.0 day
[13] = Toxicity in Sprague-Dawley rat assessed as animal death at 10 to 100 mg/kg, IG measured for 14 days; assay type: organism-based; conditions: in vivo, po, 336 h, dose 10-100 mg/kg, time 14 day
[14] = Toxicity in fasted female Sprague-Dawley rat assessed as body weight at 148 mg/kg, IG measured on same day (reference value: 165.2 +/- 8.1 g); assay type: organism-based; conditions: in vivo, po
[15] = Toxicity in fasted female Sprague-Dawley rat assessed as body weight at 224 mg/kg, IG measured on same day (reference value: 165.2 +/- 8.1 g); assay type: organism-based; conditions: in vivo, po
[16] = Toxicity in fasted female Sprague-Dawley rat assessed as body weight at 331 mg/kg, IG measured on same day (reference value: 165.2 +/- 8.1 g); assay type: organism-based; conditions: in vivo, po
[17] = Toxicity in fasted male Sprague-Dawley rat assessed as body weight at 500 mg/kg, IG measured on same day (reference value: 212.7 +/- 13.2 g); assay type: organism-based; conditions: in vivo, po
[18] = Toxicity in fasted male Sprague-Dawley rat assessed as body weight at 100 mg/kg, IG measured after 7 days (reference value: 260.5 +/- 12.7 g); assay type: organism-based; conditions: in vivo, po, 168 h, time 7 day
[19] = Toxicity in fasted female Sprague-Dawley rat assessed as body weight at 148 mg/kg, IG measured after 7 days (reference value: 188.2 +/- 9.2 g); assay type: organism-based; conditions: in vivo, po, 168 h, time 7 day
[20] = Toxicity in fasted female Sprague-Dawley rat assessed as body weight at 224 mg/kg, IG measured after 7 days (reference value: 188.2 +/- 9.2 g); assay type: organism-based; conditions: in vivo, po, 168 h, time 7 day
[21] = Toxicity in fasted male Sprague-Dawley rat assessed as body weight at 500 mg/kg, IG measured after 7 days (reference value: 260.5 +/- 12.7 g); assay type: organism-based; conditions: in vivo, po, 168 h, time 7 day
[22] = Toxicity in fasted male Sprague-Dawley rat assessed as body weight at 100 mg/kg, IG measured after 14 days (reference value: 311.2 +/- 13.6 g); assay type: organism-based; conditions: in vivo, po, 336 h, time 14 day
[23] = Toxicity in fasted male Sprague-Dawley rat assessed as body weight at 224 mg/kg, IG measured after 14 days (reference value: 311.2 +/- 13.6 g); assay type: organism-based; conditions: in vivo, po, 336 h, time 14 day
[24] = Toxicity in fasted female Sprague-Dawley rat assessed as body weight at 500 mg/kg, IG measured after 14 days (reference value: 214.3 +/- 9.8 g); assay type: organism-based; conditions: in vivo, po, 336 h, time 14 day
[25] = Toxicity in fasted female Sprague-Dawley rat assessed as relative liver weight ratio at 148 mg/kg, IG measured for 14 days (reference value: 3.199 +/- 0.062); assay type: organism-based; conditions: in vivo, po, 336 h, time 14 day
[26] = Toxicity in fasted male Sprague-Dawley rat assessed as relative liver weight ratio at 224 mg/kg, IG measured for 14 days (reference value: 3.616 +/- 0.286); assay type: organism-based; conditions: in vivo, po, 336 h, time 14 day
[27] = Toxicity in fasted female Sprague-Dawley rat assessed as relative kidney weight ratio at 148 mg/kg, IG measured for 14 days (reference value: 0.802 +/- 0.031); assay type: organism-based; conditions: in vivo, po, 336 h, time 14 day
[28] = Toxicity in fasted female Sprague-Dawley rat assessed as relative heart weight ratio at 331 mg/kg, IG measured for 14 days (reference value: 0.429 +/- 0.016); assay type: organism-based; conditions: in vivo, po, 336 h, time 14 day
[29] = Toxicity in fasted male Sprague-Dawley rat assessed as relative heart weight ratio at 500 mg/kg, IG measured for 14 days (reference value: 0.396 +/- 0.043); assay type: organism-based; conditions: in vivo, po, 336 h, time 14 day
[30] = Toxicity in fasted female Sprague-Dawley rat assessed as relative lung weight ratio at 331 mg/kg, IG measured for 14 days (reference value: 0.534 +/- 0025); assay type: organism-based; conditions: in vivo, po, 336 h, time 14 day
[31] = Toxicity in fasted female Sprague-Dawley rat assessed as relative spleen weight ratio at 224 mg/kg, IG measured for 14 days (reference value: 0.223 +/- 0.019); assay type: organism-based; conditions: in vivo, po, 336 h, time 14 day
[32] = Toxicity in fasted female Sprague-Dawley rat assessed as relative ovary weight ratio at 224 mg/kg, IG measured for 14 days (reference value: 0.061 +/- 0.010); assay type: organism-based; conditions: in vivo, po, 336 h, time 14 day
[33] = Toxicity in fasted female Sprague-Dawley rat assessed as relative ovary weight ratio at 500 mg/kg, IG measured for 14 days (reference value: 0.061 +/- 0.010); assay type: organism-based; conditions: in vivo, po, 336 h, time 14 day

C=C[C@]1(C)C[C@@H](OC(=O)COC(=O)/C=C/c2ccc(N(C)C)cc2)[C@]2(C)[C@H](C)CC[C@]3(CCC(=O)[C@H]32)[C@@H](C)[C@@H]1O
MIC (Escherichia coli [1]): 16 µg/mL (≈ 29 µM) | MIC (Klebsiella pneumoniae): 64 µg/mL (≈ 116 µM) | MIC (Acinetobacter baumannii): 64 µg/mL (≈ 116 µM) | MIC [2]: 0.002 µg/mL (≈ 0.00363 µM) | MIC (Mycoplasmopsis synoviae): 0.008 µg/mL (≈ 0.0145 µM) | CC50 at 24 h [3]: 34.6 µM | inhibition (INH) (Escherichia coli [4]): 58.1% | fold change (FC) (Staphylococcus aureus [5]): 4.01 | fold change (FC) (Staphylococcus aureus [6]): 3.21 | Activity (Escherichia coli [7]): 15.45% | Activity (Staphylococcus aureus [8]): Active | Activity (Escherichia coli [9]): Active | Activity (Escherichia coli [10]): Active | Survival [11]: 30% | Activity (Staphylococcus aureus [12]): Active | Activity [13]: Non-Toxic | Activity [14]: 159.8 g | Activity [15]: 168.5 g | Activity [16]: 171.3 g | Activity [17]: 208 g | Activity [18]: 265.5 g | Activity [19]: 181.4 g | Activity [20]: 191.2 g | Activity [21]: 251.3 g | Activity [22]: 314.5 g | Activity [23]: 304.9 g | Activity [24]: 207.7 g | Ratio [25]: 3.193 | Ratio [26]: 3.699 | Ratio [27]: 0.818 | Ratio [28]: 0.471 | Ratio [29]: 0.376 | Ratio [30]: 0.528 | Ratio [31]: 0.249 | Ratio [32]: 0.073 | Ratio [33]: 0.071
